Assay results from PubChem BioAssay AID330 (DTP/NCI, 2004).
Values joined by “and” are separate entries in the source; they are usually repeats but may differ in a detail not shown here. Equal values may be shown once. Toxic doses and inconclusive results are not listed. How the source made its calls: active means survival T/C of 150% or more; inactive means T/C below 125% in these data.

Test system: P388 leukemia ip, CD2F1 mice, survival T/C
Assay: NCI In Vivo Anticancer Drug Screen. Data for tumor model P388 Leukemia (intraperitoneal) in CD2F1 (CDF1) mice
Details: endpoint: median survival time, higher = longer survival
Procedure, shortened: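 Mice carrying the transplanted tumor received test compound or vehicle. Survival was recorded in each group, and the value is the treated-group measurement divided by that of the vehicle-treated control group.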

[1] = dose: 50.0 mg/kg/injection, schedule: Q01DX009 (ip), vehicle: saline with Tween-80
[2] = dose: 100.0 mg/kg/injection, schedule: Q01DX009 (ip), vehicle: saline with Tween-80
[3] = dose: 200.0 mg/kg/injection, schedule: Q01DX009 (ip), vehicle: saline with Tween-80
[4] = dose: 50.0 mg/kg/injection, schedule: Q01DX005 (ip), vehicle: Klucel (hydroxypropylcellulose) (HPC)
[5] = dose: 100.0 mg/kg/injection, schedule: Q01DX005 (ip), vehicle: Klucel (hydroxypropylcellulose) (HPC)
[6] = dose: 200.0 mg/kg/injection, schedule: Q01DX005 (ip), vehicle: Klucel (hydroxypropylcellulose) (HPC)
[7] = dose: 50.0 mg/kg/injection, schedule: Q01DX009 (ip), vehicle: saline
[8] = dose: 100.0 mg/kg/injection, schedule: Q01DX009 (ip), vehicle: saline
[9] = dose: 100.0 mg/kg/injection, schedule: Q01DX001 (ip), vehicle: saline with Tween-80
[10] = dose: 200.0 mg/kg/injection, schedule: Q01DX001 (ip), vehicle: saline with Tween-80
[11] = dose: 400.0 mg/kg/injection, schedule: Q01DX001 (ip), vehicle: saline with Tween-80
[12] = dose: 50.0 mg/kg/injection, schedule: Q01DX009 (ip), vehicle: Klucel (hydroxypropylcellulose) (HPC)
[13] = dose: 100.0 mg/kg/injection, schedule: Q01DX009 (ip), vehicle: Klucel (hydroxypropylcellulose) (HPC)
[14] = dose: 200.0 mg/kg/injection, schedule: Q01DX009 (ip), vehicle: Klucel (hydroxypropylcellulose) (HPC)
[15] = dose: 50.0 mg/kg/injection, schedule: Q01DX005 (ip), vehicle: saline with Tween-80
[16] = dose: 100.0 mg/kg/injection, schedule: Q01DX005 (ip), vehicle: saline with Tween-80
[17] = dose: 200.0 mg/kg/injection, schedule: Q01DX005 (ip), vehicle: saline with Tween-80
[18] = dose: 200.0 mg/kg/injection, schedule: Q01DX009 (ip), vehicle: saline

Measured: T/C

Cc1ccc(S(=O)CC(O)c2ccccc2)cc1 (stereo not given)
inactive: [1] 110 % of control | [2] 101 % of control | [3] 100 % of control

O=C(Cc1nc2ccccc2n2nnnc12)NCCO
inactive: dose: 100.0 mg/kg/injection, schedule: Q04DX002 (ip), vehicle: Klucel + Tween-80 99 % of control | dose: 200.0 mg/kg/injection, schedule: Q04DX002 (ip), vehicle: Klucel + Tween-80 88 % of control | dose: 400.0 mg/kg/injection, schedule: Q04DX002 (ip), vehicle: Klucel + Tween-80 92 % of control

CC(=O)Oc1nnc(OC(C)=O)n1-c1ccccc1
inactive: [4] 114 % of control | [5] 111 % of control | [6] 115 % of control

Cc1ccc(-n2nc(C)cc2C)nn1
inactive: [7] 99 % of control | [8] 101 % of control

CCN(CC)CCCNc1c(OC)cc(C)c2sc3ccccc3c(=O)c12
inactive: [7] 102 % of control

CP1(=S)CC[C@H]2C3=C(CC[C@@H]21)CC(=O)CC3 (stereo not given in full)
inactive: dose: 50.0 mg/kg/injection, schedule: Q01DX005 (ip), vehicle: saline + Tween-80 + alcohol 106 % of control | dose: 100.0 mg/kg/injection, schedule: Q01DX005 (ip), vehicle: saline + Tween-80 + alcohol 103 % of control | dose: 200.0 mg/kg/injection, schedule: Q01DX005 (ip), vehicle: saline + Tween-80 + alcohol 97 % of control

CCC(C)C(=O)OC1CCC=C2C=CC(C)C(CCC3CC(O)CC(=O)O3)C21 (stereo not given)
inactive: dose: 15.0 mg/kg/injection, schedule: Q01DX009 (ip), vehicle: saline 107 % of control | dose: 30.0 mg/kg/injection, schedule: Q01DX009 (ip), vehicle: saline 100 % of control | dose: 60.0 mg/kg/injection, schedule: Q01DX009 (ip), vehicle: saline 100 % of control

COc1cc2ccccc2c2c1OP(=O)(O)Oc1c(OC)cc3ccccc3c1-2
inactive: [9] 100 % of control | [10] 92 % of control | [11] 114 % of control

CC12CC3CC(C)(C1)CC(C(Cl)C(=O)NC(C)(C)C)(C3)C2 (stereo not given)
inactive: [12] 97 % of control | [13] 100 % of control | [14] 93 % of control

CC12CCC(OC3CCCCO3)CC1=CCC1C2CCC2(C)C(O)/C(=N\O)CC12 (stereo not given)
inactive: dose: 100.0 mg/kg/injection, schedule: Q04DX002 (ip), vehicle: saline 91 % of control | dose: 200.0 mg/kg/injection, schedule: Q04DX002 (ip), vehicle: saline 94 % of control | dose: 400.0 mg/kg/injection, schedule: Q04DX002 (ip), vehicle: saline 90 % of control

Cc1c(-c2ccccc2)oc(=O)c(Cl)c1N(C)C
inactive: [15] 102 % of control | [16] 100 % of control | [17] 100 % of control

COc1nc(N)c(NC(C)=O)c(=O)n1C
inactive: dose: 60.0 mg/kg/injection, schedule: Q01DX005 (ip), vehicle: saline 96 % of control | dose: 120.0 mg/kg/injection, schedule: Q01DX005 (ip), vehicle: saline 96 % of control | dose: 240.0 mg/kg/injection, schedule: Q01DX005 (ip), vehicle: saline 93 % of control

COc1cc(-c2cc(C(=O)O)c3cc4ccccc4cc3n2)cc(OC)c1OC
inactive: [12] 113 % of control | [13] 110 % of control | [14] 104 % of control

O=C(O)c1cccc(C(=O)O)c1Sc1c(C(=O)O)cccc1C(=O)O
inactive: [9] 99 % of control | [10] 95 % of control | [11] 91 % of control

CC1NCC23CCC4C(CC=C5CC(O)CCC54C)C2CCC13 (stereo not given)
inactive: dose: 25.0 mg/kg/injection, schedule: Q01DX009 (ip), vehicle: saline with Tween-80 90 % of control | [1] 87 % of control | [2] 94 % of control

CCCn1c(C)nc2[nH]ncc2c1=O
inactive: [4] 100 % of control | [5] 98 % of control | [6] 92 % of control

OC(c1ccccc1)(c1ccccc1)c1ccc(C[P+](c2ccccc2)(c2ccccc2)c2ccccc2)cc1
inactive: dose: 1.56 mg/kg/injection, schedule: Q01DX009 (ip), vehicle: other 101 % of control | dose: 3.13 mg/kg/injection, schedule: Q01DX009 (ip), vehicle: other 117 % of control

CC(C)(C)[Si](C)(C)OCc1ccccc1N1C(=O)C(NC(=O)Cc2ccccc2)C1/C=C/c1ccccc1 (stereo not given)
inactive: [1] 99 % of control | [2] 94 % of control | [3] 92 % of control

COc1ccc(/C=C/c2ccc3ccccc3[n+]2C)c(OC)c1OC
inactive: dose: 0.63 mg/kg/injection, schedule: Q01DX009 (ip), vehicle: Klucel (hydroxypropylcellulose) (HPC) 107 % of control | dose: 1.25 mg/kg/injection, schedule: Q01DX009 (ip), vehicle: Klucel (hydroxypropylcellulose) (HPC) 110 % of control | dose: 5.0 mg/kg/injection, schedule: Q01DX009 (ip), vehicle: Klucel (hydroxypropylcellulose) (HPC) 107 % of control

NC(=S)N/N=C/C=C/c1ccccc1
inactive: dose: 25.0 mg/kg/injection, schedule: Q04DX002 (ip), vehicle: Klucel (hydroxypropylcellulose) (HPC) 96 % of control | dose: 50.0 mg/kg/injection, schedule: Q04DX002 (ip), vehicle: Klucel (hydroxypropylcellulose) (HPC) 105 % of control | dose: 100.0 mg/kg/injection, schedule: Q04DX002 (ip), vehicle: Klucel (hydroxypropylcellulose) (HPC) 101 % of control

COc1cc2c(c(C3(O)C(=O)N(C)c4ccccc43)c1OC)OCO2 (stereo not given)
inactive: dose: 60.0 mg/kg/injection, schedule: Q01DX005 (ip), vehicle: saline with Tween-80 101 % of control | dose: 120.0 mg/kg/injection, schedule: Q01DX005 (ip), vehicle: saline with Tween-80 98 % of control | dose: 240.0 mg/kg/injection, schedule: Q01DX005 (ip), vehicle: saline with Tween-80 98 % of control

O=C1CC2(CCCCC2)C(=O)N1c1cc([N+](=O)[O-])ccn1
inactive: dose: 12.5 mg/kg/injection, schedule: Q01DX009 (ip), vehicle: Klucel (hydroxypropylcellulose) (HPC) 100 % of control | dose: 25.0 mg/kg/injection, schedule: Q01DX009 (ip), vehicle: Klucel (hydroxypropylcellulose) (HPC) 101 % of control | [12] 100 % of control and 92 % of control

COC(=O)CCSC(=O)NCCCCCCNC(=O)SCCC(=O)OC
inactive: [4] 98 % of control | [5] 100 % of control | [6] 98 % of control

NS(=O)(=O)c1cccnc1Nc1ccc([N+](=O)[O-])cc1
inactive: [7] 105 % of control | [8] 101 % of control | [18] 93 % of control

CC(C)c1cc(=O)c2cc3[nH]c4ccccc4c3cc2[nH]1
inactive: [15] 97 % of control | [16] 87 % of control | [17] 90 % of control

CCCC1OCC(CC)C(CCC)O1 (stereo not given)
inactive: [2] 100 % of control | dose: 100.0 mg/kg/injection, schedule: Q04DX003 (ip), vehicle: saline sonified 100 % of control | [3] 100 % of control | dose: 200.0 mg/kg/injection, schedule: Q04DX003 (ip), vehicle: saline sonified 109 % of control | dose: 400.0 mg/kg/injection, schedule: Q01DX009 (ip), vehicle: saline with Tween-80 91 % of control | dose: 400.0 mg/kg/injection, schedule: Q04DX003 (ip), vehicle: saline sonified 109 % of control

S=C(Nc1ccccc1)P(c1ccccc1)c1ccccc1.[Ir]
inactive: [4] 90 % of control | [5] 99 % of control | [6] 97 % of control

CN(c1ccc(C2=NCCN2)cc1)S(=O)(=O)c1ccc(Cc2ccc(S(=O)(=O)N(C)c3ccc(C4=NCCN4)cc3)cc2)cc1
inactive: dose: 6.25 mg/kg/injection, schedule: Q01DX005 (ip), vehicle: Klucel (hydroxypropylcellulose) (HPC) 103 % of control | dose: 12.5 mg/kg/injection, schedule: Q01DX005 (ip), vehicle: Klucel (hydroxypropylcellulose) (HPC) 97 % of control

COc1ccc2c(c1)C1(C)C(=O)OC(C2=O)C1C (stereo not given)
inactive: dose: 50.0 mg/kg/injection, schedule: Q01DX001 (ip), vehicle: Klucel (hydroxypropylcellulose) (HPC) 104 % of control | dose: 100.0 mg/kg/injection, schedule: Q01DX001 (ip), vehicle: Klucel (hydroxypropylcellulose) (HPC) 99 % of control | dose: 200.0 mg/kg/injection, schedule: Q01DX001 (ip), vehicle: Klucel (hydroxypropylcellulose) (HPC) 114 % of control

COC(=O)C1CCCCC1C(=O)OC (stereo not given)
inactive: dose: 12.5 mg/kg/injection, schedule: Q01DX009 (ip), vehicle: saline 108 % of control | dose: 25.0 mg/kg/injection, schedule: Q01DX009 (ip), vehicle: saline 104 % of control and 111 % of control | [7] 104 % of control | [8] 100 % of control and 101 % of control (2×) | [18] 110 % of control
